Test results published in patent US7381703B2, “Aplidine for multiple myeloma treatment” (Dana-Faber Cancer Institute, Inc., priority 2003, dated 2008).
Numbered stars: 1 amine (or outer) side, 2 acyl side, 3 side chain; on linkers, the order of the positions; unused ones are H or OH. Bridge positions count the residues as written; N and C are the ends. Square brackets hold non-standard residues; d marks the D form. Peptide text beside a SMILES is read from it. * marks the point of attachment. X1 = CC[C@H](C)[C@@H](N[*:1])[C@@H](O)CC(=O)O[C@H](C(=O)[C@H](C)C(=O)[*:2])C(C)C; NMeY = CN[C@@H](Cc1ccc(O)cc1)C(=O)O; dNMeL = CN[C@H](CC(C)C)C(=O)O; Pyruvoyl = CC(=O)C(=O)*

Columns and labels:
[1] = test system: human MM cell lines; assay: MTT colorimetric survival assay, panel of MM cell lines; assay type: cell-based; conditions: for the overwhelming majority of the MM cell lines of the panel (FIG. 1), read-out: IC50 doses
Procedure: (§1) Cell survival was examined using the 3-(4,5-dimethylthiazol-2-yl)-2,5-diphenyltetrazolium bromide (MTT; Sigma Chemical, St Louis, Mo.) colorimetric assay, as previously described (Mitsiades C. S. et al. Blood. 2001, 98, 795-804; Mitsiades N. et al. Proc Natl Acad Sci USA. 2002, 99, 14374-14379; Mitsiades N. et al. Blood. 2003, 101, 2377-2380). Briefly, cells were plated in 48-well plates at 70% to 80% confluence in the presence of 2.5% fetal bovine serum (FBS) and in the presence of Aplidine at final concentration of 0-100 nM or DMSO vehicle control. At the end of each treatment, cells were incubated with 1 mg/mL MTT for 4 hours at 37° C.; a mixture of isopropanol and 1 N HCl (23:2, vol/vol) was then added under vigorous pipetting to dissolve the formazan crystals. Dye absorbance (A) in viable cells was measured at 570 nm, with 630 nm as a reference wavelength. Cell viability was estimated as a percentage of the value of untreated controls. All experiments were repeated at least 3 times, and each experimental condition was repeated at least in triplicate wells in each experiment. Data reported are average values±SD of representative experiments. […]

[2] = solubilised aplidine; cited from earlier work
[3] = test system: MM-1S human MM cells stably transfected with myristoylated Akt; assay: MTT survival assay, myrAkt-transfected MM-1S cells; assay type: cell-based; conditions: myrAkt-transfected MM-1S cells (FIG. 1)
Procedure: as §1

[4] = test system: colon tumor cells; conditions: cited from earlier work
[5] = test system: BMSCs; conditions: at the aplidine doses used in the co-culture
Procedure: (§2) We therefore investigated whether aplidine can also overcome the molecular sequelae of the interaction of BMSCs with MM cells and achieve anti-MM activity in this context. We thus performed in vitro co-culture assays of MM cells with BMSCs as previously described: BMSCs were grown on 24-well plates to confluency. […] Flow cytometric analysis was performed to detect the CD138+ population of viable MM cells and the effect of aplidine on MM cell viability was expressed as % of viable cell numbers in comparison to the respective vehicle-treated cultures.

[6] = test system: gastric, prostate and Burkitts lymphoma human xenografts; conditions: subcutaneous implanted gastric; cited from earlier work
[7] = test system: primary MM tumor cells; assay: MTT survival assay, combination with doxorubicin; assay type: cell-based, human; conditions: aplidine 2 nM with doxorubicin 10 ng/mL, primary MM tumor sample (FIG. 5)
[8] = test system: non-small-cell lung tumor cells; conditions: cited from earlier work
[9] = test system: bladder carcinoma; conditions: bladder carcinoma in the hollow fiber; cited from earlier work
[10] = test system: colon CX-1; conditions: mice bearing human xenografted tumors; cited from earlier work
[11] = test system: primary MM tumor cells co-cultured with BMSCs; assay: Co-culture of MM cells with bone marrow stromal cells, flow cytometry of viable CD138+ cells; assay type: cell-based, human; conditions: 48 hours, flow-cytometric determination of cell death (FIG. 3)
Procedure: as §2

[12] = test system: B16 melanoma; conditions: murine tumors such as B16 melanoma; cited from earlier work
[13] = test system: breast MX-1; conditions: mice bearing human xenografted tumors; cited from earlier work
[14] = test system: primary MM tumor cells; assay: MTT survival assay, primary MM tumor cells; assay type: cell-based, human; conditions: 10 primary tumor specimens from multi-drug resistant MM patients; 20 nM for 48 hrs (FIG. 2)
Procedure: as §1

[15] = test system: VEGF secretion; assay: Quantification of VEGF secretion by ELISA; assay type: cell-based, human; conditions: 20 nM
Description: MM cell adhesion to BMSCs induces increased secretion of angiogenic cytokines, such as vascular endothelial growth factor (VEGF), an event deemed of major significance for the recruitment of new blood vessels at the sites of MM cells in the BM milieu. […] The supernatants were collected and assayed for VEGF concentration by enzyme-linked immunosorbent assay (ELISA) using a commercially available kit (VEGF ELISA kit; R&D Systems), according to the instructions of the manufacturer.

[16] = test system: multiple myeloma lines resistant to dexamethasone (MM 1.R); conditions: cells in culture, XTT or MTS (FIG. 6)
Procedure: The cells used were: • multiple myeloma cells (MM1.S) • multiple myeloma lines resistant to dexamethasone (MM 1.R) • a multiple myeloma line overexpressing Bcl-2
For established cell lines, cells were plated in 96 well plates and allowed to grow for 24 h prior to addition of drugs. Cells were incubated with drug for indicated times and cell viability was measured by the XTT or MTS assay using an automated plate reader.

[17] = test system: NCI human in vitro panel cell lines; conditions: cited from earlier work
[18] = test system: multiple myeloma line overexpressing Bcl-2; assay: XTT or MTS cell viability assay, Bcl-2 overexpressing MM line; assay type: cell-based; conditions: cells in culture, XTT or MTS (FIG. 7)
Procedure: Aplidine was tested against various established cells in culture.

[19] = test system: MM-1S human MM cells stably transfected with Bcl-2; assay: MTT survival assay, Bcl-2-transfected MM-1S cells; assay type: cell-based; conditions: Bcl-2-transfected MM-1S cells (FIG. 1)
Procedure: as §1

[20] = phase I/II trials; cited from earlier work

CC[C@H](C)[C@H]1NC(=O)[C@@H](NC(=O)[C@@H](CC(C)C)N(C)C(=O)[C@@H]2CCCN2C(=O)C(C)=O)[C@@H](C)OC(=O)[C@H](Cc2ccc(OC)cc2)N(C)C(=O)[C@@H]2CCCN2C(=O)[C@H](CC(C)C)NC(=O)[C@@H](C)C(=O)[C@H](C(C)C)OC(=O)C[C@@H]1O [Aplidine, Dehydrodidemnin B] (Pyruvoyl-P[dNMeL]T[X1]LP[NMeY](Me); ester 3-C)
IC50 [1]: ≤ 10 nM
degradation under heat and light stress testing conditions [2]: substantial degradation
sensitivity to aplidine vs. empty-vector transfected cells [3]: did not have lower sensitivity
IC50 [4]: 0.45 nM
survival of BMSCs [5]: did not significantly affect
in vivo antitumor activity [6]: in vivo antitumor activity
responsiveness of MM cells to doxorubicin in combination with Aplidine [7]: increased responsiveness to doxorubicin
IC50 [8]: 0.18 nM
in vivo antitumor activity [9]: in vivo antitumor activity
in vivo activity [10]: confirm activity
effect of MM-BMSC interaction on in vitro anti-MM activity [11]: did not significantly attenuate
in vivo activity [12]: in vivo activity
in vivo activity [13]: confirm activity
in vitro anti-MM activity [14]: consistent with the results obtained from the testing of our cell line panel
VEGF secretion when MM cells are co-cultured with BMSCs ([15]; 12-hour treatment, co-culture (FIG. 4B)): counteract the increase in VEGF secretion
secretion of VEGF by MM cells ([15]; 12-hour treatment, primary MM tumor cells (FIGS. 4A and 4B)): suppress the secretion of VEGF
VEGF secretion by BMSCs ([15]; 12 hrs, BMSCs (FIG. 4B)): suppresses the VEGF secretion
growth inhibition of dexamethasone resistant MM1.R cells compared with MM1.S [16]: as effectively as the parenteral line (MM1.S)
selectivity in the NCI human in vitro panel [17]: selectivity for non-small-cell lung cancer (NSCLC), melanoma, ovarian and colorectal cancer cell lines
growth of Bcl-2 overexpressing MM cells [18]: inhibits growth
sensitivity to aplidine vs. empty-vector transfected cells [19]: did not have lower sensitivity
dose-limiting toxicity [20]: muscular toxicity
myelosuppression [20]: remarkable lack of severe myelosuppression
